Non-standard residues stand in square brackets, D forms with d. Residues, ends and D or L forms follow the SMILES beside them.
Legend:
[1] = test system: postoperative pancreatic fistula (POPF); assay: Rat pancreatic common duct transection (lethal) POPF model; format: in vivo
Description: In order to challenge the efficacy of DPMD in emergency treatments for POPF, a lethal rat model of POPF was established through transection of the main pancreatic duct. After 8 h post‐surgical modeling, evidence of severe POPF was observed through the presence of leaky Chymotrypsin (Figure S11, Supporting Information). At this critical juncture, DPMD, LPMD or an equal volume normal saline solution were administered via syringe injection into the abdominal cavity near the pancreas. […] Consequently, all […] rats subjected to the mock treatment succumbed to three days post‐surgical modeling, while LPMD only extended the median survival from 2 days in Ctrl to 3 days in LPMD (Figure 4D). […] Furthermore, both DPMD and LPMD treatments decreased inflammation markers including TNF‐α, IL‐6, IL‐8, IL‐33 sST2, CRP, HMGB1, MPO, PAF, PCT, PGE2 and SAA present in rat serum (Figure 4G).
Without damaging the surrounding pancreatic tissue and capillaries, a transverse incision on the pancreatic splenic duct was performed using micro-scissors. Successful modelling is confirmed by observing external leakage of pancreatic fluid. Place a self-made drainage tube into the rat's abdominal cavity with its outlet positioned at the site of the transected splenic duct, then exit through the abdominal wall and fix it there.
3.14 Construction of rat pancreatic common duct transection model
Animal studies were performed according to the protocols approved by the Institution Guidelines and were approved by the Laboratory Animal Center of Xijing Hospital of The Fourth Military Medical University (No. IACUC-20220308). ALL rats were purchased from the Laboratory Animal Center of The Fourth Military Medical University. The rats were housed under standard specific pathogen-free conditions with a 12h–12h light–dark cycle.
The preoperative preparation and postoperative care for the rat model were consistent with those of the rat pancreatic splenic duct transection pancreatic fistula model, except for the transecting of the pancreatic common duct of the pancreas in modeling. A custom-made drainage tube outlet was positioned around the area where the pancreatic common duct was transected.
3.15 Evaluation of the effect of DPMD on pancreatic duct transection model The male SD rats were randomly assigned to six rats in each group. Prepare a pancreatic duct transection model with a pancreatic fistula and apply 0.3 mL of normal saline, 0.3 ml of DPMD, and 0.3 mL of LPMD at the incision site. After 3days, administer 3 mL of MeO-Succ-Arg-Pro-Tyr-AMO solution (ATT Bioquest) to the pancreatic stump and surrounding tissues for fluorescence imaging in real-time under dark field conditions while using an API filter. Blood and ascitic fluid

[2] = Turbidity and CLSM phase separation of DPMD with trypsin/chymotrypsin; format: physicochemical
Source text: Next, these intriguing microaggregates were further investigated using fluorescence recovery after photobleaching (FRAP) experiments. […] To directly visualize the liquid–solid phase separation process, we performed time‐lapse confocal microscopy on mixtures of DPMD and trypsin/chymotrypsin. Initially, numerous small, spherical DPMD‐rich microdroplets appeared upon enzyme addition and gradually grew into larger droplets within minutes (Figure S5A, Supporting Information). […] We next examined whether the enzyme–peptide aggregates remain stable under varying physiological conditions, such as changes in pH and enzyme concentration.
Figure S5. (A) The CLSM images of DPMD with enzyme and DPMD without enzyme under different time. (B) Turbidity measurements result illustrating the phase separation of DPMD -treated trypsin and chymotrypsin at different concentrations or pH shifts . % represents the mass fraction of the DPMD/trypsin/chymotrypsin . (C) The CLSM images of DPMD with enzyme, DPMD without enzyme and DPMD with enzyme and aprotinin. (D&E) The CLSM images of DPMD with enzyme and DPMD without enzyme under different pH (D) or enzyme concentrations […]
(1 picture or pasted object on this page, not shown here)
0.22μm filter to remove residue. The calcium content of the supernatant was measured using the Calcium ion detection kit (Beyotime) according to the recommended method. […]
Peptide and enzyme solutions were prepared at varying concentrations and mixed at a 1:1 volume ratio. Solution turbidity was quantitatively assessed by monitoring absorbance at 405 nm using a BioTek spectrophotometer. For fluorescence-based characterization, peptides were labeled with FITC while enzymes were labeled with Cy5. […] For fluorescence recovery after photobleaching (FRAP) analysis, enzyme-aggregated patches were selectively bleached at 60% laser power using 488/640 nm lasers for 10 s, followed by time-lapse imaging at 1-min intervals. […] Fluorescence intensity in the photobleached region was measured using ImageJ software , with values normalized to pre-bleach baselines. […]

CC[C@@H](C)[C@@H](NC(=O)[C@@H](CCC(N)=O)NC(=O)[C@H](NC(=O)[C@@H](Cc1ccc(O)cc1)NC(=O)CNC(=O)[C@@H](CC(C)C)NC(=O)[C@H](NC(=O)[C@@H](CO)NC(=O)CNC(=O)[C@@H](C)NC(=O)[C@@H](CC(=O)O)NC(=O)[C@@H](C)NC(=O)[C@@H](CCCNC(=N)N)NC(=O)[C@@H](C)NC(=O)[C@@H](CC(=O)O)NC(=O)[C@@H](C)NC(=O)[C@@H](CCCNC(=N)N)NC(=O)[C@@H](C)NC(=O)[C@@H](CC(=O)O)NC(=O)[C@@H](C)NC(=O)[C@@H](CCCNC(=N)N)NC(=O)[C@@H](C)NC(=O)[C@@H](CC(=O)O)NC(=O)[C@@H](C)NC(=O)[C@H](N)CCCNC(=N)N)C(C)C)[C@H](C)CC)C(=O)N[C@H](CCCNC(=N)N)C(=O)O [DPMD, Ac‐(D‐RADA)4‐CONH2] (H-[dR][dA][dD][dA][dR][dA][dD][dA][dR][dA][dD][dA][dR][dA][dD][dA]G[dS][dV][dL]G[dY][dI][dQ][dI][dR]-OH; N-terminus and C-terminus assumed)
chymotrypsin leakage by fluorescence imaging ([1]; 3 day after treatment, laparotomy, Figure 4B): halted the leakage almost entirely | ascitic and serum amylase and lipase levels ([1]; compared to mock treatment, Figure 4C): statistically significant reduction | deaths during the seven-day observation period ([1]; injection into abdominal cavity 8 h after modeling, all eight mock-treated rats died within three days): none of the rats treated with DPMD died | H&E staining of pancreatic tissue ([1]; three days after surgery, Figure 4E): reduced edema and inflammatory cell infiltration | serum inflammation markers (TNF-α, IL-6, IL-8, IL-33, sST2, CRP, HMGB1, MPO, PAF, PCT, PGE2, SAA) ([1]; within 7 days after surgery, Figure 4G): decreased | phase separation by turbidity ([2]; absorbance at 405 nm, DPMD and trypsin/chymotrypsin mixtures 1:1 volume, across a range of pH levels and enzyme concentrations, Figure S5B): robust phase separation | phase separation with aprotinin-neutralized protease ([2]; enzyme pre-incubated with aprotinin, CLSM, Figure S5C): no significant phase separation occurred | aggregate formation at shifted pH ([2]; pH 5.6 and pH 8.4, mixtures with trypsin/chymotrypsin, Figure S5D): still became cloudy and formed microscopically visible droplets/aggregates

Source: PMC12520456, “Regulating Enzyme Activity via Microaggregates Mediated by Phase Separation” (Advanced Science, 2025)
